The results in this text go back to patent US20140221354A1, “IMIDAZO [1,2-a]PYRIDINE COMPOUNDS FOR USE IN THERAPY” (EMBLEM Technology Transfer GmbH, priority 2011, published 2014).

A value given as a limit tells only on which side of the number the result lay.

This test has as its system CellSensor® HRE-bla HCT-116 stably transfected reporter cell line. As to the kind of experiment: HIF/HRE reporter assay. Type of test: cell-based. To be noted: Homo sapiens, inhibition of activated HIF signaling response, hypoxic conditions induced with deferoxamine (DFO), 24 h incubation, blue/green emission ratio, read-out: Evaluation. The protocol:
Inhibition of an activated HIF signaling response under chemically-induced hypoxic conditions due to compound treatment was determined using the CellSensor® HRE-bla HCT-116 stably transfected reporter cell line from Invitrogen according to the manufacturer's instructions.
Cells were maintained as described previously and seeded into 384-well, clear-bottom plates (Corning 3712) at 15000 cells/well in 32 μl assay medium (Opti-MEM [Invitrogen], 0.5% FBS, 100 U/ml penicillin, 100 μg/ml streptomycin, 0.1 mM non-essential amino acids [NEAA], 1 mM sodium pyruvate, 5 mM HEPES [pH 7.3]). Following a 2 h incubation period, compounds (4 μl) were subsequently added to the cells at 10× concentrations in 5% DMSO and incubated under normal conditions for 30 min. To induce hypoxic conditions, 4 μl of a 2 mM deferoxamine (DFO) solution was added to the cells followed by 24 h incubation under standard assay conditions (as described). Control wells included wells containing only medium (no cells) and wells treated with 0.5% DMSO instead of compound.
Prior to the readout, the Substrate Loading Solution was prepared as described in the manufacturer's protocol and 10 μl added to each well. Following a further 2 h incubation period at room temperature and in the dark, fluorescence was measured at two wavelengths (blue channel: ex. 409 nm, em. 460 nm; green channel: ex. 409 nm, em. 530 nm) on a PerkinElmer Envision HTS. For the analysis, the average signal of the cell-free wells at 460 nm and 530 nm was first subtracted from the blue and green channel data, respectively. The blue/green emission ratios were then calculated for each well, dividing the background-corrected blue emission values by the background-corrected green emission values. […] values were determined from these ratios using GraphPad Prism (Prism 5, GraphPad software, Inc.).
Regarding `O=[N+]([O-])c1ccc(-c2nc3ccc(-c4ccccc4)cn3c2CN2CCNCC2)cc1` [Example 1, 2-(4-nitrophenyl)-6-phenyl-3-(piperazin-1-ylmethyl)imidazo[1,2-a]pyridine], the EC50 was < 500 nM.

Regarding `CC(=O)N1CCN(Cc2c(-c3cccc([N+](=O)[O-])c3)nc3ccc(-c4ccccc4)cn23)CC1` [Example 2, 1-(4-((2-(3-nitrophenyl)-6-phenylimidazo[1,2-a]pyridin-3-yl)methyl)piperazin-1-yl)ethanone], the EC50 was > 1000 nM.

With `CC(=O)N1CCN(Cc2c(-c3ccc([N+](=O)[O-])cc3)nc3ccc(-c4ccccc4)cn23)CC1` [Example 3, 1-(4-((2-(4-nitrophenyl)-6-phenylimidazo[1,2-a]pyridin-3-yl)methyl)piperazin-1-yl)ethanone], the EC50 was 500 to 1000 nM.

With `O=[N+]([O-])c1ccc(-c2nc3ccc(-c4ccccc4)cn3c2CN2CCCNCC2)cc1` [Example 4, 3-((1,4-diazepan-1-yl)methyl)-2-(4-nitrophenyl)-6-phenylimidazo[1,2-a]pyridine], the EC50 was < 500 nM.

As to `CCCN1CCN(Cc2c(-c3ccc([N+](=O)[O-])cc3)nc3ccc(-c4ccccc4)cn23)CC1` [Example 5, 2-(4-nitrophenyl)-6-phenyl-3-((4-propylpiperazin-1-yl)methyl)imidazo[1,2-a]pyridine], the EC50 is 500 to 1000 nM.

Consider `CCN1CCN(Cc2c(-c3ccc([N+](=O)[O-])cc3)nc3ccc(-c4ccccc4)cn23)CC1` [Example 6, 3-((4-ethylpiperazin-1-yl)methyl)-2-(4-nitrophenyl)-6-phenylimidazo[1,2-a]pyridine], for which the EC50 lay within 500 to 1000 nM.

Take `CN1CCN(Cc2c(-c3ccc([N+](=O)[O-])cc3)nc3ccc(-c4ccccc4)cn23)CC1` [Example 7, 3-((4-methylpiperazin-1-yl)methyl)-2-(4-nitrophenyl)-6-phenylimidazo[1,2-a]pyridine]: the EC50 was < 500 nM.

`CS(=O)(=O)c1ccc(-c2nc3ccc(-c4ccccc4)cn3c2CN2CCCNCC2)cc1` [Example 8, 3-((1,4-diazepan-1-yl)methyl)-2-(4-(methylsulfonyl)phenyl)-6-phenylimidazo[1,2-a]pyridine]: the EC50 was > 1000 nM.

Take `N#Cc1ccc(-c2nc3ccc(-c4ccccc4)cn3c2CN2CCCNCC2)cc1` [Example 9, 4-(3-((1,4-diazepan-1-yl)methyl)-6-phenylimidazo[1,2-a]pyridin-2-yl)benzonitrile]: the EC50 is < 500 nM.

Consider `NC(=O)c1ccc(-c2nc3ccc(-c4ccccc4)cn3c2CN2CCCNCC2)cc1` [Example 10, 4-(3-((1,4-diazepan-1-yl)methyl)-6-phenylimidazo[1,2-a]pyridin-2-yl)benzamide], for which the EC50 was > 1000 nM.

`c1ccc(-c2ccc3nc(-c4ccncc4)c(CN4CCCNCC4)n3c2)cc1` [Example 11, 3-((1,4-diazepan-1-yl)methyl)-6-phenyl-2-(pyridin-4-yl)imidazo[1,2-a]pyridine]: the EC50 is < 500 nM.

`CN1CCCN(Cc2c(-c3ccc([N+](=O)[O-])cc3)nc3ccc(-c4ccccc4)cn23)CC1` [Example 12, 3-((4-methyl-1,4-diazepan-1-yl)methyl)-2-(4-nitrophenyl)-6-phenylimidazo[1,2-a]pyridine]: the EC50 was < 500 nM.

`O=C1CN(Cc2c(-c3ccc([N+](=O)[O-])cc3)nc3ccc(-c4ccccc4)cn23)CCN1` [Example 13, 4-((2-(4-nitrophenyl)-6-phenylimidazo[1,2-a]pyridin-3-yl)methyl)piperazin-2-one]: the EC50 was < 500 nM.

On to `Clc1ccc(-c2nc3ccc(-c4ccccc4)cn3c2CN2CCCNCC2)cc1` [Example 14, 3-((1,4-diazepan-1-yl)methyl)-2-(4-chlorophenyl)-6-phenylimidazo[1,2-a]pyridine], for which the EC50 was < 500 nM.

`c1ccc(-c2ccc3nc(-c4cccnc4)c(CN4CCCNCC4)n3c2)cc1` [Example 15, 3-((1,4-diazepan-1-yl)methyl)-6-phenyl-2-(pyridin-3-yl)imidazo[1,2-a]pyridine]: the EC50 is < 500 nM.

For the molecule `N#Cc1ccc(-c2nc3ccc(-c4ccccc4)cn3c2CN2CCCNCC2)cn1` [Example 16, 5-(3-((1,4-diazepan-1-yl)methyl)-6-phenylimidazo[1,2-a]pyridin-2-yl)picolinonitrile], the EC50 fell in the range of 500 to 1000 nM.

Consider `Cc1ccc(-c2nc3ccc(-c4ccccc4)cn3c2CN2CCCNCC2)cc1` [Example 17, 3-((1,4-diazepan-1-yl)methyl)-6-phenyl-2-(p-tolyl)imidazo[1,2-a]pyridine], for which the EC50 was < 500 nM.

For the molecule `COc1ccc(-c2nc3ccc(-c4ccccc4)cn3c2CN2CCCNCC2)cc1` [Example 18, 3-((1,4-diazepan-1-yl)methyl)-2-(4-methoxyphenyl)-6-phenylimidazo[1,2-a]pyridine], the EC50 was < 500 nM.

For the molecule `c1ccc(-c2ccc3nc(-c4ccccc4)c(CN4CCCNCC4)n3c2)cc1` [Example 19, 3-((1,4-diazepan-1-yl)methyl)-2,6-diphenylimidazo[1,2-a]pyridine], the EC50 is 500 to 1000 nM.

Regarding `N#Cc1csc(-c2nc3ccc(-c4ccccc4)cn3c2CN2CCCNCC2)c1` [Example 20, 5-(3-((1,4-diazepan-1-yl)methyl)-6-phenylimidazo[1,2-a]pyridin-2-yl)thiophene-3-carbonitrile], the EC50 was < 500 nM.

As for `N#Cc1ccc(-c2nc3ccc(-c4ccccc4)cn3c2CN2CCCNCC2)s1` [Example 21, 5-(3-((1,4-diazepan-1-yl)methyl)-6-phenylimidazo[1,2-a]pyridin-2-yl)thiophene-2-carbonitrile], the EC50 is < 500 nM.

As to `N#Cc1cccc(-c2nc3ccc(-c4ccccc4)cn3c2CN2CCCNCC2)c1` [Example 22, 3-(3-((1,4-diazepan-1-yl)methyl)-6-phenylimidazo[1,2-a]pyridin-2-yl)benzonitrile], the EC50 is < 500 nM.

`Cc1ccc(-c2ccc3nc(-c4ccc(C#N)cc4)c(CN4CCCNCC4)n3c2)cc1` [Example 23, 4-(3-((1,4-diazepan-1-yl)methyl)-6-(p-tolyl)imidazo[1,2-a]pyridin-2-yl)benzonitrile]: the EC50 was < 500 nM.

`Cc1cccc(-c2ccc3nc(-c4ccc(C#N)cc4)c(CN4CCCNCC4)n3c2)c1` [Example 24, 4-(3-((1,4-diazepan-1-yl)methyl)-6-(m-tolyl)imidazo[1,2-a]pyridin-2-yl)benzonitrile]: the EC50 was < 500 nM.

`Cc1ccccc1-c1ccc2nc(-c3ccc(C#N)cc3)c(CN3CCCNCC3)n2c1` [Example 25, 4-(3-((1,4-diazepan-1-yl)methyl)-6-(o-tolyl)imidazo[1,2-a]pyridin-2-yl)benzonitrile]: the EC50 was < 500 nM.

On to `N#Cc1ccc(-c2nc3ccc(-c4cncnc4)cn3c2CN2CCCNCC2)cc1` [Example 26, 4-(3-((1,4-diazepan-1-yl)methyl)-6-(pyrimidin-5-yl)imidazo[1,2-a]pyridin-2-yl)benzonitrile], for which the EC50 is > 1000 nM.

On to `N#Cc1ccc(-c2nc3ccc(-c4ccncc4)cn3c2CN2CCCNCC2)cc1` [Example 27, 4-(3-((1,4-diazepan-1-yl)methyl)-6-(pyridin-4-yl)imidazo[1,2-a]pyridin-2-yl)benzonitrile], for which the EC50 was < 500 nM.

As to `Cc1cc(-c2ccc3nc(-c4ccc(C#N)cc4)c(CN4CCCNCC4)n3c2)ccn1` [Example 28, 4-(3-((1,4-diazepan-1-yl)methyl)-6-(2-methylpyridin-4-yl)imidazo[1,2-a]pyridin-2-yl)benzonitrile], the EC50 was 500 to 1000 nM.
